These results are taken from patent publication US20230024521A1, “JAK INHIBITORS” (Vimalan Biosciences, Inc., priority 2019, published 2023).

The structures appear in SMILES notation. pIC50: −log10 of the molar value. Like-named read-outs stand apart in the source and are kept apart here. Bounds are passed on as bounds.

Test [1] concerns the target TYK2 (Homo sapiens, UniProt P29597). In words: JAK/TYK2 assay (Kinase Glo luminescence): Tyk2 kinase assay. The format is biochemical. Particulars: 9 nM enzyme, 2 uM ATP, 30 uM IRS-1, 1 hr; read-out: Tyk2 kinase assay: IC50 Geomean. On the procedure:
(§1) Example A: JAK/TYK2 Assay 10 mM test compound stock or 1 mM control compound stock (tofocitinib, ruxolitinib or staurosporine) in DMSO was diluted to 0.4 mM in DMSO. A 3-fold series dilution was then performed in DMSO to generate 10 different compound concentrations. The assay was carried out in 384-well white plate. 0.5 μL of 40× compound DMSO solution at different concentrations was mixed with 10 uL 2× enzyme prepared in reaction buffer (20 mM HEPES, 10 mM MgCl2, 0.01% Tween, 1 mM DTT, pH 7.5). 10 uL 2× substrate mixture prepared in reaction buffer was then added to start the reaction. A short spin was done to settle down all solutions to the bottom of the plate. Final concentrations of test compound in the reaction mixture were 10000, 3333, 1111, 370, 123, 41.2, 13.7, 4.57, 1.52 and 0.51 nM, Concentrations of control compound were ten times less. Enzymatic reaction was conducted at 25° C. for 1-2 hours. 10 uL of Kinase Glo Reagents was added to stop the reaction and generate the luminescent signal which was measured using Envision. Luminescence signal was inversely related to kinase activity. […] The mixture without any compound was the positive control. [table]
A general note: In Kinase-Glo more light means more ATP remaining.

Test [2] addresses JAK2 (Homo sapiens, UniProt O60674). In words: JAK/TYK2 assay (Kinase Glo luminescence): Jak2 kinase assay. The format is biochemical. Conditions: 0.8 nM enzyme, 2 uM ATP, 4 uM pEY, 1 hr; read-out: Jak2 kinase assay: IC50 Geomean. On the procedure:
as §1

For test [3], the system named is JAK2: GM-CSF stimulated STAT5 phosphorylation. In words: Co-stimulation assay in lysed whole blood; JAK2: GM-CSF stimulated STAT5 phosphorylation. The format is cell-based, human. Particulars: for IC50: Homo sapiens, read-out: GMCSF/J2/pS5: GeoMean (nM); for pIC50: lysed human whole blood, GM-CSF 10 ng/mL (with IFNa 100 ng/mL), pSTAT5 by flow cytometry, read-out: GMCSF/J2/pS5: GeoMean. Here is the method: Example C: Co-Stimulation Assay in Lysed Whole Blood; JAK2: GM-CSF Stimulated STAT5 Phosphorylation and JAK1/TYK2 Stimulated STAT1 Phosphorylation Assay
Human Blood Lysis using abcam's RBC lysis buffer
Dilute RBC lysis buffer to 1× in distilled water. Add 2 mL blood to 38 mL of 1×RBC-lysis buffer. Incubate for 15 mins at RT, in dark. Spin at 300 g, 5 mins, to collect the pellet. Re-lyse if necessary. Re-suspend pellet in 5 mL of cRPMI.
Aliquot 80 μL of lysed human blood in to wells of 96 deep-well plate. Add 10 μl of (10× conc.) of different concentrations of compounds to all wells except controls (unstained and unstimulated) and mix it with the help of 100 uL multichannel Add 10 uL of RPMI media in controls. For dilution of compounds and dilution range please refer Appendix. Incubate on water bath or CO2 incubator for 1 hour at 37° C. Add 10 μl of (10× conc.) of cytokine mix (GM-CSF and IFNa) (final conc. 10 ng/mL of GM-CSF and 100 ng/mL of IFNa) to each well except unstimulated and unstained controls and incubate further for 20 minutes on water bath at 37° C.
Add 900 μL of prewarmed 1× Fix/Lyse solution (Appendix) and mix it properly using 1000 μl multichannel, incubate further on water bath at 37° C. for 10 minutes (which includes time of addition). Centrifuge at 800×g for 5 minutes at 40° C.; remove 900 uL of supernatant and add 900 μL of 1×PBS. Centrifuge at 800×g for 5 minutes at 40° C., remove 900 μL of supernatant. Wash one more time with 900 μL of PBS (optional) and resuspend pellets in 100 uL of PBS.
Disrupt the pellet by gentle tapping and resuspend in 1000 μL of BD Phosflow Perm Buffer III and incubate plate on ice for 30 minutes. Centrifuge plate at 800×g for 5 minutes at 40° C. Wash two more times with 1000 μL of BD Pharmingen Stain Buffer.
Disrupt the pellet by gentle tapping. Resuspend pellets in 100 uL of Stain Buffer and add 5 μL of pSTAT5_AF488 Ab and 5 uL of pSTAT1_PE in all wells except unstained control and mix properly using 200 μl multichannel, incubate overnight at […]. Add 900 μL of wash buffer and centrifuge at 1800 rpm for 3 minutes at […]. Wash one more time with 1000 μL of BD Pharmingen Stain Buffer. Finally resuspend the pellet in 300 uL of BD Pharmingen Stain Buffer. Transfer the cells to 96-well v-bottom plate and acquire the cells in Beckman Coulter CytExpert. Acquiring cells in Flow Cytometer: Keep the threshold value to 250 and cell concentration should not exceed 100-500 cells/4. Acquire at least 5,000-10,000 cells.
RPMI 1640 Complete Medium: RPMI 1640 media+10% FBS.
Cytokine dilution: 1) GM-CSF Stock at 100 ug/mL. Prepare an intermediate dilution of 1 ug/mL by adding 2 uL of stock into 198 uL of cRPMI. Further dilute to 100 ng/mL by adding 100 uL of the intermediate stock to 900 uL of cRPMI. 2) IFNa Stock at 200 ug/mL. Dilute IFNa stock 1:200 by adding 5 uL of stock into the 1000 uL of 100 ng/mL GM-CSF working stock as above to give a combined working stock of 1000 ng/mL of IFNa and 100 ng/mL GM-CSF (10×). Keep it on ice until used.
Lyse/Fix buffer preparation: Dilute 5× Lyse/Fix buffer to 1× using MQ water and keep at 37° C. until used.
BD Phosflow perm buffer III: Keep on ice/fridge
Background: Flow cytometry measures light scatter and fluorescence of single cells or particles in a stream.

Sequence of JAK2 (O60674 whole entry, species assumed): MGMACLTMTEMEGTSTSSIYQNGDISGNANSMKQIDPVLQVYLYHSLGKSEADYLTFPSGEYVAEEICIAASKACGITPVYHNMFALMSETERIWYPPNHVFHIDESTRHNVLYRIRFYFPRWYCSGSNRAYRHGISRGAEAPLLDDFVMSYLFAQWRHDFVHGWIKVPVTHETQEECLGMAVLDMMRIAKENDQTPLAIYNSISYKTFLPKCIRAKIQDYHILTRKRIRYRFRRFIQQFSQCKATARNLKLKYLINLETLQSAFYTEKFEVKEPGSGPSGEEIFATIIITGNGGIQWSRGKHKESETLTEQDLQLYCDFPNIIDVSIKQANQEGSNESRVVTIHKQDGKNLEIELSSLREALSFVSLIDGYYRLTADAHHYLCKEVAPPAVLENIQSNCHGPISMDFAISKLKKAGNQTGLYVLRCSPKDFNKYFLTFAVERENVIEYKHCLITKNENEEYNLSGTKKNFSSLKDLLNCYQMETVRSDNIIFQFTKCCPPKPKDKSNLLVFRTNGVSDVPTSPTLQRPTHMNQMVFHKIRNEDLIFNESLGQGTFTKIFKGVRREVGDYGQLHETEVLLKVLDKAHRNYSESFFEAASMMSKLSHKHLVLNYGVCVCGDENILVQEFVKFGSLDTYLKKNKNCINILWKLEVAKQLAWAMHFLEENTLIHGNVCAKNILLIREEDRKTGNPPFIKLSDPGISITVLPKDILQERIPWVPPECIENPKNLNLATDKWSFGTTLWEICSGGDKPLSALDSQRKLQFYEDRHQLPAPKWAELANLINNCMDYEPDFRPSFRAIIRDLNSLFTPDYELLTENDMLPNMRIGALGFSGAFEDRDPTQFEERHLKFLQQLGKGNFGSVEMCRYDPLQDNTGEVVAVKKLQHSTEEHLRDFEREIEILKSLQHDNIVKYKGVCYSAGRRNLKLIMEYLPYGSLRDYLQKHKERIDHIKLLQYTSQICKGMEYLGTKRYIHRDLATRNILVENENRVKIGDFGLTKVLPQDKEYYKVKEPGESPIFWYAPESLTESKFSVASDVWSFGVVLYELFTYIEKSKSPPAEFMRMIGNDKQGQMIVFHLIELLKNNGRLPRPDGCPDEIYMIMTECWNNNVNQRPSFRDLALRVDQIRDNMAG
Sequence of TYK2 (P29597 whole entry, species assumed): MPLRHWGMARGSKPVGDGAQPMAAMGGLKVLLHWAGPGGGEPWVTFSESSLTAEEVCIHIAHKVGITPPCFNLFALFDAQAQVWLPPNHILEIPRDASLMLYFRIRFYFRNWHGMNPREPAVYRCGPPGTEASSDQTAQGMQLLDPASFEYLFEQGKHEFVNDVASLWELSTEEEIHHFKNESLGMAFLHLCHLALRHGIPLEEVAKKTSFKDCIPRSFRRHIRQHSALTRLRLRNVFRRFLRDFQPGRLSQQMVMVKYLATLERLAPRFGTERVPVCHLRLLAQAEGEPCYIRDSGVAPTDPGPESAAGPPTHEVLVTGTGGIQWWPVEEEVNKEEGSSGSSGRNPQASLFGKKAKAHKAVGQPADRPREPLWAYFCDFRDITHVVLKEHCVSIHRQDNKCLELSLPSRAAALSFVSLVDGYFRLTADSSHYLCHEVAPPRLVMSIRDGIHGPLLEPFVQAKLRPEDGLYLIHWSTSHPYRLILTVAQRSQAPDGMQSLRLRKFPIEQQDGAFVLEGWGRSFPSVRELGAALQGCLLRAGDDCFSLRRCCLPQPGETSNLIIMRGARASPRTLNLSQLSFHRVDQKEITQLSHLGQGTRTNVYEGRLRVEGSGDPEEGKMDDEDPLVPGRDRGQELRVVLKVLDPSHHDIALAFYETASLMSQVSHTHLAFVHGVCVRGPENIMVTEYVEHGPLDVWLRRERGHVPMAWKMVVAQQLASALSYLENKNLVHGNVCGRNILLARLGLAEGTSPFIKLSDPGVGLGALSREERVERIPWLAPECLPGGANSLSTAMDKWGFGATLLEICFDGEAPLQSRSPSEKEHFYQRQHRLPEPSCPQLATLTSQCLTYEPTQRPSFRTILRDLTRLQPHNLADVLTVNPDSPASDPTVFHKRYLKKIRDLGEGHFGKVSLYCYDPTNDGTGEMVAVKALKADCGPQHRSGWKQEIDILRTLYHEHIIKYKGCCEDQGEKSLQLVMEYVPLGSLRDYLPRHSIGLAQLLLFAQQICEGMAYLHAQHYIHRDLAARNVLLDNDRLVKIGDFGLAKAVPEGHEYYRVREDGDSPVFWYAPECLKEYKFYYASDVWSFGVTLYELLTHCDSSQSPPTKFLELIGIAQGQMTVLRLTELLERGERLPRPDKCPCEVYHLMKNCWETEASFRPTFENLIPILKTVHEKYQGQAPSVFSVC

Regarding `CC[C@H](Cn1ccc2cnc(Nc3cnn(CC(=O)N4CCOC4=O)c3)nc21)C(C)C` [Example 3, (5)-3-(2-(4-((7-(2-ethyl-3-methylbutyl)-7H-pyrrolo[2,3-d]pyrimidin-2-yl)amino)-1H-pyrazol-1-yl)acetyl) oxazolidin-2-one], the pIC50 in test [1] and in test [2] was above 7.00 each time. Besides, the IC50 in test [3] was in the range of 1000 to 10000 nM.
In the case of `CCC(CC)Cn1ccc2cnc(Nc3cnn(CC(N)=O)c3)nc21` [Example 7, 2-(4-((7-(2-ethylbutyl)-7H-pyrrolo[2,3-d]pyrimidin-2-yl)amino)-1H-pyrazol-1-yl) acetamide], the pIC50 in test [1] was above 7.00; in test [2], above 7.00; in test [3], 6.00 to 7.00.
For the compound `CC[C@@H](Cn1ccc2cnc(Nc3cnn(C4CCNC4=O)c3)nc21)C(C)C` (stereo partly drawn) [Example 8], the pIC50 in test [1] and in test [2] was above 7.00 throughout. Further, in test [3], the IC50 lay in the range of 1000 to 10000 nM.
`CC[C@H](Cn1ccc2cnc(Nc3cnn(CC(N)=O)c3)nc21)C(C)C` [Example 1, (S)-2-(4-((7-(2-ethyl-3-methylbutyl)-7H-pyrrolo[2,3-d]pyrimidin-2-yl)amino)-1H-pyrazol-1-yl) acetamide]: the pIC50 in test [1] is above 7.00; in test [2] it was above 7.00; in test [3], 6.00 to 7.00.
